Results reported in patent US4312813A, “Bisquaternary ammonium compound” (Johnson & Johnson Baby Products Company, priority 1980, dated 1982).

Experiments:
rabbit eye = test: modified Draize Test, ocular irritation; assay type: in vivo; conditions: 3.50% of compound in shampoo composition; 0.1 ml per eye, albino rabbit; control shampoo rated Severe Irritant
Procedure: The bisquaternary ammonium compounds of the present invention can be tested for ocular irritation by the following modified Draize Test (J. H. Draize et al., Toilet Goods Assn. No. 17, May 1952, No. 1, Proc. Sci. Sect.).
An 0.1 ml. sample of a neutral composition under test is dropped into one eye of an albino rabbit, the other eye serving as a control. Six rabbits are employed for each composition. Observations are made after 1, 24, 48, 72 and 96 hours and 7 days after initial instillation; second and third instillations are made after the 24 and 48 hour readings. Results may vary from substantially no change or only a slight irritation in the appearance of the rabbit's eye after 7 days to severe irritation and/or complete corneal opacity. Ocular lesions are scored for the cornea, iris and conjunctiva with a higher number indicating greater ocular irritation and the scores are added to give a total numerical value for each reading for six rabbits and averaged. The averaged score is an indication of the irritation potential of the composition under test. Based on the averaged score, descriptive irritation evaluation may be given, e.g., none, slight, moderate, severe, as the case may be.
A shampoo composition is prepared consisting of the following ingredients:
This formulation serves as a control with three additional formulations being made with the only difference being that in each of said formulations 3.50% of distilled water is replaced with 3.50% of compound JJ, KK and LL respectively. These formulations are then tested in accordance with the above procedure and the results are shown below in Table I.

Aspergillus niger = test: Minimum Inhibiting Concentration test; assay type: cell-based; conditions: fungi, 25° C., 1 month
Procedure: (§1) First, 200 mg. each of the compounds, AA, CC, GG, II and MM are placed in 100 ml. of a 10% ethyl alcohol solution resulting in a concentration of 2.00 mg/ml. and then 11 serial two fold dilutions are made to a final concentration of […]. Thus, a range of concentrations of from 0.0001 mg/ml. to 2.00 mg/ml. are prepared. Separately, 1000 ml. of a standard Antibiotic Medium #3 is innoculated with 1 ml. of a 24 hour broth culture of each of the test organisms and the resulting solutions are dispersed in 2 ml. portions into 13 mm×100 mm test tubes at 4° C. Two test tubes for each of the test organisms are prepared.
(§2) Then, 0.4 ml. of each concentration of the compound to be tested is placed in each of the test tubes, which are then shaken and placed at a temperature of 35° C. for a period of 18 hours for bacteria, 25° C. for a period of 3 days for yeast, and 25° C. for a period of 1 month for fungi. The end point of the activity is determined by streaking utilizing a calibrated loop to Trypticase Soy Agar to determine the last tube (concentration) with growth and the next greatest concentration.

Candida albicans = test: Minimum Inhibiting Concentration test; assay type: cell-based; conditions: yeast, 25° C., 3 days; for MIC: 72 h
Procedure: as §1, §2

Epidermophyton flocossum = test: Minimum Inhibiting Concentration test; assay type: cell-based; conditions: fungi, 25° C., 1 month
Procedure: as §1, §2

Escherichia coli = test: Minimum Inhibiting Concentration test; assay type: cell-based; conditions: 35° C., 18 hours
Procedure: as §1, §2

Proteus mirabilis = test: Minimum Inhibiting Concentration test; assay type: cell-based; conditions: 35° C., 18 hours
Procedure: as §1, §2

Proteus vulgaris = test: Minimum Inhibiting Concentration test; assay type: cell-based; conditions: 35° C., 18 hours
Procedure: as §1, §2

Pseudomonas aeruginosa = test: Minimum Inhibiting Concentration test; assay type: cell-based; conditions: 35° C., 18 hours
Procedure: as §1, §2

Staphylococcus aureos = test: Minimum Inhibiting Concentration test; assay type: cell-based; conditions: 35° C., 18 hours
Procedure: as §1, §2

Staphylococcus epidermis = test: Minimum Inhibiting Concentration test; assay type: cell-based; conditions: 35° C., 18 hours
Procedure: as §1, §2

Staphylococcus pyogenes = test: Minimum Inhibiting Concentration test; assay type: cell-based; conditions: 35° C., 18 hours; for MIC: Staphylococcus aureus
Procedure: as §1, §2

[1] = test system: Trichophyton mentagrophytes; test: Minimum Inhibiting Concentration test; assay type: cell-based; conditions: fungi, 25° C., 1 month
Procedure: as §1, §2

[2] = hair fly-away: electrostatic charge of brushed hair tresses (Faraday pail, electrometer); conditions: one percent aqueous solutions; hair tresses brushed or combed 20 strokes
Procedure: To test the hair fly-away characteristics of the novel bisquaternary ammonium compounds of the present invention, the following test procedure can be utilized.
The hair to be utilized is formed into six inch long, 1.5 gram weight tresses, cleaned with methanol first, then with a 1% solution of sodium lauryl sulfate followed by a rinse with distilled water. The tress is then dried in an oven at 55° C. The tresses except for the controls are then treated with the test compounds and redried at 55° C.
An electrometer (Electrometer Model 610C, Keithley Instrument Co., Cleveland, Ohio) to serve as a coulomb meter for direct measurement of charge is attached to a Faraday pail and switched on.
The test tresses are singly taken out of the drying oven, held at the tied end and brushed or combed twenty strokes alternating between front and back side of the tress as held by the operator. A clean brush or comb is utilized and the velocity with which the brush or comb is traversed through the tress is maintained constant as much as possible. Further, since the electrostatic charges are capable of being quickly dissipated into the atmosphere, the procedure consists of uniformly brushing or combing 20 strokes in a period of 10 seconds and immediately following the last stroke, the lid of the Faraday cage is opened and the tress is dropped into the Faraday pail without contacting any other object and the lid is replaced. The charge in coulombs is read from the electrometer and the tress is then removed from the Faraday pail and the instrument is reset for the next tress sample.
Since electrostatic charge buildup creates fly-away in atmospheres of low humidity, these compounds are useful to prevent said fly-away condition.

Molecule	ocular irritation rating (rabbit eye)	charge reduction compared to the control [2]	MIC (Aspergillus niger) [µg/mL]	MIC (Candida albicans) [µg/mL]	MIC (Epidermophyton flocossum) [µg/mL]	MIC (Escherichia coli) [µg/mL]	MIC (Proteus mirabilis) [µg/mL]	MIC (Proteus vulgaris) [µg/mL]	MIC (Pseudomonas aeruginosa) [µg/mL]	MIC (Staphylococcus aureos) [µg/mL]	MIC (Staphylococcus epidermis) [µg/mL]	MIC (Staphylococcus pyogenes) [µg/mL]	MIC [1] [µg/mL]	also measured
CCCCCCCCCCCCCCCCCCCCCC(=O)NCCC[N+](C)(C)CCOCC[N+](C)(C)CCCNC(=O)CCCCCCCCCCCCCCCCCCCCC [KK, N,N'-di(docosamidopropyl)-N,N,N',N'-tetramethyl-1,5(3-oxapentylene)diammonium dibromide]	Slight-Moderate Irritant													
N,N'-di(octadidecenamidopropyl)-N,N,N',N'-tetramethyl-1,20 (2,5,8,11,14,17,20-heptamethyl-3,6-9,12,15,18-hexaoxaeicosylene) diammonium dibromide [II]														minimum inhibiting concentration (Aspergillus niger): 500 µg/mL; minimum inhibiting concentration (Candida albicans): 250 µg/mL; minimum inhibiting concentration (Epidermophyton flocossum): 500 µg/mL; minimum inhibiting concentration (Escherichia coli): 500 µg/mL; minimum inhibiting concentration (Proteus mirabilis): < 2000 µg/mL; minimum inhibiting concentration (Proteus vulgaris): < 2000 µg/mL; minimum inhibiting concentration (Pseudomonas aeruginosa): 2000 µg/mL; minimum inhibiting concentration (Staphylococcus aureos): 2000 µg/mL; minimum inhibiting concentration (Staphylococcus epidermis): 1000 µg/mL; minimum inhibiting concentration (Staphylococcus pyogenes): < 2000 µg/mL; minimum inhibiting concentration [1]: 31 µg/mL
N,N'-di(octatridecenamidopropyl)-N,N,N',N'-tetramethyl-1,5(3-oxapentylene)-diammonium dibromide [JJ]	Slight Irritant	greater than 95%												
CCCCCCCCCCCC(=O)NCCC[N+](C)(C)CCOCC[N+](C)(C)CCCNC(=O)CCCCCCCCCCC [CC, N,N'-di(lauramidopropyl)-N,-N,N',N'-tetramethyl-1,5(3-oxapentylene) diammonium bromide]		greater than 95%	125	63	62.5	125	< 2000	< 2000	250	250	125	250	16	
CCCCCCCCCCCCCCCCCCCCCC(=O)NCCC[N+](C)(C)CCOCCOCCOCCOCCOCCOCCOCCOCCOCCOCCOCCOCC[N+](C)(C)CCCNC(=O)CCCCCCCCCCCCCCCCCCCCC.[Br-].[Br-] [LL, N,N'-di(docosamidopropyl)-N,N,N',N'-tetramethyl-1,38(3,6,9,12,15,18,21,24,-27,30,33,36-dodeca-oxaoctatricontylene)diammonium dibromide]	Slight-Moderate Irritant	greater than 95%												
CCCCCCCCCCCCCCCCCC(=O)NCC[N+](CC)(CC)CCOCC[N+](CC)(CC)CCNC(=O)CCCCCCCCCCCCCCCCC [GG, N,N'-di(stearamidoethyl)-N,N,N',N'-tetraethyl-1,5(3-oxapentylene)diammonium dibromide]			250	31	250	1000	< 2000	< 2000	< 2000	625	62.5	< 2000	16	
C=CCCCCCCCCC(=O)NCCC[N+](C)(C)CCCC[N+](C)(C)CCCNC(=O)CCCCCCCCC=C [AA, N,N'-undecenylamidopropyl-N,N,N',N'-tetramethyl-1,-4-butylene diammonium bromide]			250	250	125	125	< 2000	250	1000	125	62.5	500	16	
